This passage reports Ki results from ChEMBL document CHEMBL1777692, “Elucidation of common pharmacophores from analysis of targeted metabolites transported by the multispecific drug transporter-Organic anion transporter1 (Oat1)” (Bioorg Med Chem, 2011).

Assay [1] has as its target T1, Solute carrier family 22 member 6 (Rattus norvegicus, UniProt O35956).
T1 sequence (O35956 whole entry): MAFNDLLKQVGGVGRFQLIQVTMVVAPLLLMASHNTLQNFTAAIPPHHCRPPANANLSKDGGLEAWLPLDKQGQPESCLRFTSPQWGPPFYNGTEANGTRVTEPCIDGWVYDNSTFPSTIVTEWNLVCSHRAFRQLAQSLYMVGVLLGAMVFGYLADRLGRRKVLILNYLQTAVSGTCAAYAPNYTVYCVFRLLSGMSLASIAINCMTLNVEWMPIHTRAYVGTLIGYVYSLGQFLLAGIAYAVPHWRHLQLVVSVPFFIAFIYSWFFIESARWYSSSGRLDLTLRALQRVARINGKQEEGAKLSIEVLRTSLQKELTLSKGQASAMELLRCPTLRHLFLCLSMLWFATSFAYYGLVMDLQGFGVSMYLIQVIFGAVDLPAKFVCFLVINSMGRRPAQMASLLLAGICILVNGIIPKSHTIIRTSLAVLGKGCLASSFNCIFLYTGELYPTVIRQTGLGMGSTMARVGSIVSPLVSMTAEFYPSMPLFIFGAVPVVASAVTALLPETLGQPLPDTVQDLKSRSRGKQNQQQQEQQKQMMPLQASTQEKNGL
The experiment in a line: Inhibition of rat Oat1 expressed in pig […] cells. It is filed as cell-based.

The target of assay [2] is T1, Solute carrier family 22 member 6. The experiment in a line: Inhibition of rat Oat1 expressed in Xenopus oocytes. It is filed as cell-based, Oocyte.

SMILES strings stand for the structures. Some results are limits rather than exact numbers.

The compound `C[C@]12CC[C@@H]3c4ccc(O)cc4CC[C@H]3[C@@H]1CC[C@@H]2O[C@@H]1O[C@H](C(=O)O)[C@@H](O)[C@H](O)[C@H]1O` [ESTRADIOL 17B GLUCURONIDE] showed a Ki in assay [1] of more than 300 µM. The same measure, in the same setting: in the case of `CCc1cccc2c3c([nH]c12)C(CC)(CC(=O)O)OCC3` (centres undefined) [ETODOLAC] it was more than 100 µM. In assay [2], `CCSC[C@H](NC(C)=O)C(=O)O` registered a Ki of 1100 µM. `CC[C@H](C)C(=O)O[C@H]1C[C@H](O)C=C2C=C[C@H](C)[C@H](CC[C@@H](O)C[C@@H](O)CC(=O)O)[C@H]21` [PRAVASTATIN] yielded a Ki in assay [1] of 52 µM.
